This passage reports Ki results from US10501461B2, “Tyrosine amide derivatives as Rho-kinase inhibitors” (CHIESI FARMACEUTICI S.P.A., priority 2017, dated 2019).

The Ki is a measure of affinity in units of concentration, obtained from inhibition or displacement. Higher therefore signals a looser hold on the target.

Test [1] concerns the target Rho kinase 1 (ROCK-I) (Homo sapiens, UniProt Q13464). The test can be described thus: In vitro Rho kinase inhibitory activity assay (ADP-Glo), Rho kinase 1. The class given is biochemical. The conditions noted are these: 10 μM ATP, 25° C., expressed as range of activity. The procedure, abridged: (§1)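 ADP-Glo luminescence read-out. Enzyme (ROCK1 or ROCK2) + compound 30 min, then 10 μM ATP final, 1 h, 25 °C; 2.5 μM MBP peptide substrate, Tris pH7.5/MgCl2/BSA/DTT buffer, 1% DMSO. IC50 from variable-slope fit (0–100% fixed); Ki via Cheng-Prusoff.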

For test [2], the target named is Rho kinase 2 (ROCK-II) (Homo sapiens, UniProt O75116). Description: In vitro Rho kinase inhibitory activity assay (ADP-Glo), Rho kinase 2. The class given is biochemical. The conditions noted are these: 10 μM ATP, 25° C., expressed as range of activity. In short, it runs like this: as §1
Sequence of Rho kinase 2 (ROCK-II) (O75116 whole entry): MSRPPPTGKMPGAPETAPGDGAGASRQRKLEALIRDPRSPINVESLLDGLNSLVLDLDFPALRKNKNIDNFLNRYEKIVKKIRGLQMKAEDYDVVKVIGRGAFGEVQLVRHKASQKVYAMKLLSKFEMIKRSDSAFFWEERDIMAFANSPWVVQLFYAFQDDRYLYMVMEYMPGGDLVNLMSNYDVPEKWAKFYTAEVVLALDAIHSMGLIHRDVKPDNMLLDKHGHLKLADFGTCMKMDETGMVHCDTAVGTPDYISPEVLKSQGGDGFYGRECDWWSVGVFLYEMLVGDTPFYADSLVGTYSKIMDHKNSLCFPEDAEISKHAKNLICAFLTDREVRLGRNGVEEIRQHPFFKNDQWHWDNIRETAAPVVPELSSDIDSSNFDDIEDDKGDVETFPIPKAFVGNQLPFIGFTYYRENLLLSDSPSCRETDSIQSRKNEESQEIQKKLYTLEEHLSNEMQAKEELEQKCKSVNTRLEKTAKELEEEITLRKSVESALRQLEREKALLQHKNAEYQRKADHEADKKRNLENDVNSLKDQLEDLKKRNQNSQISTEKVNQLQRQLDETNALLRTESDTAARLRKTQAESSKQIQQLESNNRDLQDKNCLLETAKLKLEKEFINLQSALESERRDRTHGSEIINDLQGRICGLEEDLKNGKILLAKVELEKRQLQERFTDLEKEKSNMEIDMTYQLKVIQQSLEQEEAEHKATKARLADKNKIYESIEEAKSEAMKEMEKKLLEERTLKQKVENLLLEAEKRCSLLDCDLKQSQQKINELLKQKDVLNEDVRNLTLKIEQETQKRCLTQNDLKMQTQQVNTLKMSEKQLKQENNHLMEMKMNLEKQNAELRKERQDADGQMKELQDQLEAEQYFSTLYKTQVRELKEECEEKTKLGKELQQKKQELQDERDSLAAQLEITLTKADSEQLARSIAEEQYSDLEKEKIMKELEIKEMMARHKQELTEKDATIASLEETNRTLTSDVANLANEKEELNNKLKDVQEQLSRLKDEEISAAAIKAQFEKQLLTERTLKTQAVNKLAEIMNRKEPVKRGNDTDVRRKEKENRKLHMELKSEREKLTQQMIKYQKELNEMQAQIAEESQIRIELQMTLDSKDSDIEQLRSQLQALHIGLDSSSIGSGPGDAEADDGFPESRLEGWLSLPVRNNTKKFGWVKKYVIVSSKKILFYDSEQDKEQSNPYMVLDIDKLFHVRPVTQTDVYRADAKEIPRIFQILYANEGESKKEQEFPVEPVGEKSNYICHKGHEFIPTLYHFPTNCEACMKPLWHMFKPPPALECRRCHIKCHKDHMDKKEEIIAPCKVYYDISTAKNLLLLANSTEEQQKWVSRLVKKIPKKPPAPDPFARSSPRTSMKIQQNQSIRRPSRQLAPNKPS
On the technique in general: In ADP-Glo the light output rises with the ADP produced.

Structures are written as SMILES.

Sequence of Rho kinase 1 (ROCK-I) (Q13464 whole entry): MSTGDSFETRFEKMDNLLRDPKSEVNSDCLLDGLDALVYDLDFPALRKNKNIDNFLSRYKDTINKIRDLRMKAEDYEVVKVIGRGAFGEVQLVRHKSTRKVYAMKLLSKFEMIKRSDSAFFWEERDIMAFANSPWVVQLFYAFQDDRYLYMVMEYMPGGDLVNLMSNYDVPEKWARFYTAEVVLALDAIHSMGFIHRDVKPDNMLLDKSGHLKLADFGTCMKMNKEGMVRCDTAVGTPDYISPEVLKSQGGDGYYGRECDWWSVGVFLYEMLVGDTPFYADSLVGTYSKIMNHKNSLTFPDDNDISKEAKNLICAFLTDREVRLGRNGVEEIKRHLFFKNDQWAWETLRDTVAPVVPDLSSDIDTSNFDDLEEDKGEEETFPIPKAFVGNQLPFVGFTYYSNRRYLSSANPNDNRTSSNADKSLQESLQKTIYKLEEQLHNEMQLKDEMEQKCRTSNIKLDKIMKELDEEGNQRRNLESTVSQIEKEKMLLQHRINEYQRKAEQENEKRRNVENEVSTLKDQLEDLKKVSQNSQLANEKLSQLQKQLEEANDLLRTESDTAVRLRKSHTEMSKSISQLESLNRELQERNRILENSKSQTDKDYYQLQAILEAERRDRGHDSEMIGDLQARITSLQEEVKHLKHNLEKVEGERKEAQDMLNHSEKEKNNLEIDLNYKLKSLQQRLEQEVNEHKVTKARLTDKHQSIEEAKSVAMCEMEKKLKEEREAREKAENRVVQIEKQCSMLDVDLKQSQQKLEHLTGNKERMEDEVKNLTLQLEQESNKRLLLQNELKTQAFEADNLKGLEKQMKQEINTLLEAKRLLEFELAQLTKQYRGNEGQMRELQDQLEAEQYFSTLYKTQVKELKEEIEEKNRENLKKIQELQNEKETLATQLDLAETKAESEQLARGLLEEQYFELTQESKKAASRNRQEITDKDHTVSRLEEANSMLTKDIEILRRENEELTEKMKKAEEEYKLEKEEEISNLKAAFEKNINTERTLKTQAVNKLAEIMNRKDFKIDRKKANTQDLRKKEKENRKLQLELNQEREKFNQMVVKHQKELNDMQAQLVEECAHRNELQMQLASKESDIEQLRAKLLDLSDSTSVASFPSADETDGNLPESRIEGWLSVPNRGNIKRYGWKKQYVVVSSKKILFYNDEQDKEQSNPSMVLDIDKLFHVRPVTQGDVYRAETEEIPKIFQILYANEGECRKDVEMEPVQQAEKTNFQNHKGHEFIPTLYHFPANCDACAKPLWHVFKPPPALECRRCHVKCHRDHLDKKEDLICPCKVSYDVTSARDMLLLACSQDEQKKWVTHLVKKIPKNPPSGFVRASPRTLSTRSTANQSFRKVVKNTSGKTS

For the compound `O=C(NC(Cc1ccc(Oc2ccnc3[nH]ccc23)cc1)C(=O)NC1CCCCC1)C1CCNC1` (stereo not shown) [Example 180, N-(3-(4-((1H-pyrrolo[2,3-b]pyridin-4-yl)oxy)phenyl)-1-(cyclohexylamino)-1-oxopropan-2-yl)pyrrolidine-3-carboxamide], the Ki in test [1] and in test [2] was 3 to 30 nM throughout.

On to `Cc1c[nH]c2nccc(Oc3ccc(C[C@H](N)C(=O)NC4(C(N)=O)CCCCC4)cc3F)c12` [Example 35, (S)-1-(2-amino-3-(3-fluoro-4-((3-methyl-1H-pyrrolo[2,3-b]pyridin-4-yl)oxy)phenyl)propanamido)cyclohexanecarboxamide], for which the Ki in test [1] and in test [2] was below 3 nM each time.

For `Cc1c[nH]c2nccc(Oc3ccc(CC(N)C(=O)NCCc4ccncc4)cc3F)c12` (single isomer, unassigned) [Example 57B, 2-amino-3-(3-fluoro-4-((3-methyl-1H-pyrrolo[2,3-b]pyridin-4-yl)oxy)phenyl)-N-(2-(pyridin-4-yl)ethyl)propanamide], the inhibition constant Ki in test [1] and in test [2] was below 3 nM throughout.

Take `Cc1c[nH]c2nccc(Oc3ccc(CC(N)C(=O)NCc4cccs4)cc3F)c12` (stereo not shown) [Example 61, 2-amino-3-(3-fluoro-4-((3-methyl-1H-pyrrolo[2,3-b]pyridin-4-yl)oxy)phenyl)-N-(thiophen-2-ylmethyl)propanamide]: the Ki in test [1] and in test [2] was below 3 nM throughout.

For `Cc1c[nH]c2nccc(Oc3ccc(C[C@H](N)C(=O)N4CCC(N(C)C)CC4)cc3F)c12` [Example 14, (S)-2-amino-1-(4-(dimethylamino)piperidin-1-yl)-3-(3-fluoro-4-((3-methyl-1H-pyrrolo[2,3-b]pyridin-4-yl)oxy)phenyl)propan-1-one], the Ki in test [1] and in test [2] was below 3 nM in each case.

Regarding `Cc1c[nH]c2nccc(Oc3ccc(CC(N)C(=O)N4CCN(c5ccccn5)CC4)cc3F)c12` (stereo not shown) [Example 80, 2-amino-3-(3-fluoro-4-((3-methyl-1H-pyrrolo[2,3-b]pyridin-4-yl)oxy)phenyl)-1-(4-(pyridin-2-yl)piperazin-1-yl)propan-1-one], the Ki in test [1] and in test [2] was below 3 nM in each case.

Regarding `N[C@@H](Cc1ccc(Oc2ccnc3[nH]cc(C#CCO)c23)cc1)C(=O)NC1CCCCC1` [Example 217, (S)-2-amino-N-cyclohexyl-3-(4-((3-(3-hydroxyprop-1-yn-1-yl)-1H-pyrrolo[2,3-b]pyridin-4-yl)oxy)phenyl)propanamide], the Ki in test [1] and in test [2] was below 3 nM in each case.

In the case of `Cc1c[nH]c2ncnc(Oc3ccc(C[C@H](N)C(=O)NCCc4ccncc4)cc3F)c12` [Example 128, (S)-2-amino-3-(3-fluoro-4-((5-methyl-7H-pyrrolo[2,3-d]pyrimidin-4-yl)oxy)phenyl)-N-(2-(pyridin-4-yl)ethyl)propanamide], the Ki in test [1] and in test [2] was below 3 nM in each case.

On to `Cc1c[nH]c2ncnc(Oc3ccc(C[C@H](N)C(=O)N4CCN(Cc5ccccn5)CC4)cc3F)c12` [Example 120, (S)-2-amino-3-(3-fluoro-4-((5-methyl-7H-pyrrolo[2,3-d]pyrimidin-4-yl)oxy)phenyl)-1-(4-(pyridin-2-ylmethyl)piperazin-1-yl)propan-1-one], for which the inhibition constant (Ki) in test [1] was 3 to 30 nM; in test [2], below 3 nM.

Consider `Cc1c[nH]c2nccc(Oc3ccc(CC(N)C(=O)N4CCC(c5ccncc5)C4)cc3F)c12` (racemic) [Example 66, 2-amino-3-(3-fluoro-4-((3-methyl-1H-pyrrolo[2,3-b]pyridin-4-yl)oxy)phenyl)-1-(3-(pyridin-4-yl)pyrrolidin-1-yl)propan-1-one], for which the inhibitory constant (Ki) in test [1] and in test [2] was below 3 nM in each case.

In the case of `Cc1c[nH]c2nccc(Oc3ccc(C[C@H](N)C(=O)N4CCN(C(=O)c5cnn(C)c5)CC4)cc3F)c12` [Example 175, (S)-2-amino-3-(3-fluoro-4-((3-methyl-1H-pyrrolo[2,3-b]pyridin-4-yl)oxy)phenyl)-1-(4-(1-methyl-1H-pyrazole-4-carbonyl)piperazin-1-yl)propan-1-one], the Ki in test [1] and in test [2] was below 3 nM each time.

Take `CN1CCC(NC(=O)[C@@H](N)Cc2ccc(Oc3ccnc4[nH]cc(-c5ccccc5)c34)c(F)c2)CC1` [Example 204, (S)-2-amino-3-(3-fluoro-4-((3-phenyl-1H-pyrrolo[2,3-b]pyridin-4-yl)oxy)phenyl)-N-(1-methylpiperidin-4-yl)propanamide]: the Ki in test [1] and in test [2] was below 3 nM throughout.

Turning to `Cc1c[nH]c2ncnc(Oc3ccc(C[C@H](N)C(=O)N4CCc5ccccc5C4)cc3F)c12` [Example 124, (S)-2-amino-1-(3,4-dihydroisoquinolin-2(1H)-yl)-3-(3-fluoro-4-((5-methyl-7H-pyrrolo[2,3-d]pyrimidin-4-yl)oxy)phenyl)propan-1-one], the Ki in test [1] and in test [2] was below 3 nM in each case.

For `Cc1c[nH]c2nccc(Oc3ccc(C[C@H](N)C(=O)NC4CN(C)C4)cc3F)c12` [Example 42, (S)-2-amino-3-(3-fluoro-4-((3-methyl-1H-pyrrolo[2,3-b]pyridin-4-yl)oxy)phenyl)-N-(1-methylazetidin-3-yl)propanamide], the Ki in test [1] and in test [2] was below 3 nM throughout.

Regarding `CN1CCC(NC(=O)[C@H](N)Cc2ccc(Oc3ccnc4[nH]ccc34)cc2)CC1` [Example 104, (R)-3-(4-((1H-pyrrolo[2,3-b]pyridin-4-yl)oxy)phenyl)-2-amino-N-(1-methylpiperidin-4-yl)propanamide], the Ki in test [1] and in test [2] was above 30 nM each time.

`Cc1c[nH]c2nccc(Oc3ccc(C[C@H](N)C(=O)NC4(CN(C)C)CCCCC4)cc3F)c12` [Example 38, (S)-2-amino-N-(1-((dimethylamino)methyl)cyclohexyl)-3-(3-fluoro-4-((3-methyl-1H-pyrrolo[2,3-b]pyridin-4-yl)oxy)phenyl)propanamide]: the Ki in test [1] and in test [2] was below 3 nM throughout.

As to `Cn1cncc1-c1c[nH]c2nccc(Oc3ccc(C[C@H](N)C(=O)N4CCN(Cc5ccccc5)CC4)cc3)c12` [Example 197, (S)-2-amino-1-(4-benzylpiperazin-1-yl)-3-(4-((3-(1-methyl-1H-imidazol-5-yl)-1H-pyrrolo[2,3-b]pyridin-4-yl)oxy)phenyl)propan-1-one], the Ki in test [1] and in test [2] was below 3 nM each time.

`Cc1c[nH]c2ncnc(Oc3ccc(C[C@H](N)C(=O)NCCCN(C)C)cc3F)c12` [Example 116, (S)-2-amino-N-(3-(dimethylamino)propyl)-3-(3-fluoro-4-((5-methyl-7H-pyrrolo[2,3-d]pyrimidin-4-yl)oxy)phenyl)propanamide]: the inhibition constant (Ki) in test [1] and in test [2] was 3 to 30 nM in each case.

With `Cc1c[nH]c2nccc(Oc3ccc(C[C@@H](N)C(=O)NCc4ccccc4)cc3)c12` [Example 136, (R)-2-amino-N-benzyl-3-(4-((3-methyl-1H-pyrrolo[2,3-b]pyridin-4-yl)oxy)phenyl)propanamide], the Ki in test [1] and in test [2] was 3 to 30 nM each time.

In the case of `N[C@@H](Cc1ccc(Oc2ccnc3[nH]cc(CO)c23)c(F)c1)C(=O)NC1CCOCC1` [Example 209, (S)-2-amino-3-(3-fluoro-4-((3-(hydroxymethyl)-1H-pyrrolo[2,3-b]pyridin-4-yl)oxy)phenyl)-N-(tetrahydro-2H-pyran-4-yl)propanamide], the Ki in test [1] was 3 to 30 nM; in test [2] it was below 3 nM.
